# pIC50: −log10 of the molar value. Read-outs that look alike come from different tables or passages of the source.
# How the values were obtained:
# [1] = target: Mutant type EZH2(A677G) (Homo sapiens (Human), UniProt Q15910, A677G); assay: AlphaLISA, mutant type PRC2 complex EZH2(A677G); format: biochemical; settings: read-out: Mutant type EZH2(A677G) IC59 Nanomoles per Liter
# [2] = target: wild-type EZH2 (Homo sapiens (Human), UniProt Q15910); assay: radiometric assay, activity to wild-type EZH2 of PRC2; settings: read-out: Wild-type EZH2 IC50 Nanomoles per Liter
# Chain of wild-type EZH2 (Q15910 whole entry): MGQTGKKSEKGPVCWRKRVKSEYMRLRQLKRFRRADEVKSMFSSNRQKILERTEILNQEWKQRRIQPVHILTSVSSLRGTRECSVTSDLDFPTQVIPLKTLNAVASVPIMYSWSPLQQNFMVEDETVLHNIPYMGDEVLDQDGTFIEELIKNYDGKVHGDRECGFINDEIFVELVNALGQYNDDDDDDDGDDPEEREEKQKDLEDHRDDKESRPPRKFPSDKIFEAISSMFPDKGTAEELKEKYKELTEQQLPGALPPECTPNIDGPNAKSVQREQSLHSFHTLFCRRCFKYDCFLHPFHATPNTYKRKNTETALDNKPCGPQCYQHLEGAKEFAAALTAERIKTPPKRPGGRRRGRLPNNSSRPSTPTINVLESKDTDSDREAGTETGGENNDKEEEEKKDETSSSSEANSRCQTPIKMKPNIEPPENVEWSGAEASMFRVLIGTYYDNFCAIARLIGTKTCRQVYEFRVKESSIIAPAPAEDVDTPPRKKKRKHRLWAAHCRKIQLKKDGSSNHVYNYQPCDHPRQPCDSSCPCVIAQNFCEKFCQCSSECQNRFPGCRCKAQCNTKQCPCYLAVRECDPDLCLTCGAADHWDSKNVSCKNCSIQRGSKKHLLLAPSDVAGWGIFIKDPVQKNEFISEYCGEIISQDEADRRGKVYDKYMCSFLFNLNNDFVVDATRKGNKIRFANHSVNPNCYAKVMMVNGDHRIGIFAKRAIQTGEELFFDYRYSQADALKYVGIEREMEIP
# Chain of wild-type EZH2 (O75530 whole entry partner): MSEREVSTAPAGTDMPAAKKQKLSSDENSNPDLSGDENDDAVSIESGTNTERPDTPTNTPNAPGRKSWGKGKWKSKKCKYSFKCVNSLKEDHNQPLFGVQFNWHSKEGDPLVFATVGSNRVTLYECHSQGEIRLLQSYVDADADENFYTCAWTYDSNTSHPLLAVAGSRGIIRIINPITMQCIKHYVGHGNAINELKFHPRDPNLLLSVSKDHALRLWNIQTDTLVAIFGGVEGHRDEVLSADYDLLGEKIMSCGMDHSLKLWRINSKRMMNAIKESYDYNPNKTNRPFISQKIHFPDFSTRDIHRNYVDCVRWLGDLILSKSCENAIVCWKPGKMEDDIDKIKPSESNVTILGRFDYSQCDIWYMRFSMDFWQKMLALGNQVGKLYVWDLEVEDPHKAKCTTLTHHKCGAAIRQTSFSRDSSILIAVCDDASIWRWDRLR
# Chain of wild-type EZH2 (Q15022 whole entry partner): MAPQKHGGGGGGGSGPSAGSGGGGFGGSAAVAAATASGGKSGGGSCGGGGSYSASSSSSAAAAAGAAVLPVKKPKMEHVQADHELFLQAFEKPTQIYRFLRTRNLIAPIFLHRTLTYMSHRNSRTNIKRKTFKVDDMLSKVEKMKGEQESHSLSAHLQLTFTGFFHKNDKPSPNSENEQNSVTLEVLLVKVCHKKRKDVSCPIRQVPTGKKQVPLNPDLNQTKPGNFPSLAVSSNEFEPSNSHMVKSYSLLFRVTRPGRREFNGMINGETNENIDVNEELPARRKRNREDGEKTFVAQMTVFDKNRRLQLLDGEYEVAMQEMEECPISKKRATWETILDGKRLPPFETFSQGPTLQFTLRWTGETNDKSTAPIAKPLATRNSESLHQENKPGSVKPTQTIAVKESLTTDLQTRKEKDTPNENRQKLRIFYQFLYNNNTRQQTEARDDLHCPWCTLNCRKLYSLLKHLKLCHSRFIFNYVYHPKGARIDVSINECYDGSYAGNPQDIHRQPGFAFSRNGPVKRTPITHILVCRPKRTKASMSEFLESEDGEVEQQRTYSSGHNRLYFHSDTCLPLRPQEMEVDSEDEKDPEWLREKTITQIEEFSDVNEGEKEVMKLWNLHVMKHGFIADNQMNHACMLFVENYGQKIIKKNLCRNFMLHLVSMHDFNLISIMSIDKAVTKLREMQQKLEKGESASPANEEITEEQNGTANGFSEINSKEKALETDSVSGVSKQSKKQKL
# Experimental: 25 μL of reaction solution was transferred to a scintillation plate, which was incubated at room temperature for 1 hour (h) and washed with deionized water and 0.1% Tween 20 for three times. A PerkinElmer liquid scintillation/luminescence counter was used to read the value, and GraphPad Prism 5 was used to calculate the median inhibitory concentration (IC50) of the compounds.
# [3] = target: Mutant type EZH2(Y641F) (Homo sapiens (Human), UniProt Q15910, Y641F); assay: AlphaLISA, mutant type PRC2 complex EZH2(Y641F); format: biochemical; settings: read-out: Mutant type EZH2(Y641F) IC50 Nanomoles per Liter
# Chain of Mutant type EZH2(Y641F) (Q15910 whole entry Y641F): as the sequence (Q15910 whole entry) above, with Y641F counted along it
# Chain of Mutant type EZH2(Y641F) (O75530 whole entry partner): as the sequence (O75530 whole entry partner) above
# Chain of Mutant type EZH2(Y641F) (Q15022 whole entry partner): as the sequence (Q15022 whole entry partner) above
# Chain of Mutant type EZH2(Y641F) (Q09028 whole entry partner): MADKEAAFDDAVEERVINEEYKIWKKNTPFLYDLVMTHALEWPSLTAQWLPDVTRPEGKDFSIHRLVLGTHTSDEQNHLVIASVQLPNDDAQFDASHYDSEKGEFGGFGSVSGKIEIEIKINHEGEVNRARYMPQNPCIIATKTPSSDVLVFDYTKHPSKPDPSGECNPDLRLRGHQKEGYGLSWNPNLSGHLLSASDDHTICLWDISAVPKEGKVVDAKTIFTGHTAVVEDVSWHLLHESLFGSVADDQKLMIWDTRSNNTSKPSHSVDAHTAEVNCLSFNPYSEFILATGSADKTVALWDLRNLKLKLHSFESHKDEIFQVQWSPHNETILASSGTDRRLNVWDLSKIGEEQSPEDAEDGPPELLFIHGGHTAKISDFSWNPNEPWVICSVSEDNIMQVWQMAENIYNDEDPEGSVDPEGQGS
# Chain of Mutant type EZH2(Y641F) (Q6ZN18 whole entry partner): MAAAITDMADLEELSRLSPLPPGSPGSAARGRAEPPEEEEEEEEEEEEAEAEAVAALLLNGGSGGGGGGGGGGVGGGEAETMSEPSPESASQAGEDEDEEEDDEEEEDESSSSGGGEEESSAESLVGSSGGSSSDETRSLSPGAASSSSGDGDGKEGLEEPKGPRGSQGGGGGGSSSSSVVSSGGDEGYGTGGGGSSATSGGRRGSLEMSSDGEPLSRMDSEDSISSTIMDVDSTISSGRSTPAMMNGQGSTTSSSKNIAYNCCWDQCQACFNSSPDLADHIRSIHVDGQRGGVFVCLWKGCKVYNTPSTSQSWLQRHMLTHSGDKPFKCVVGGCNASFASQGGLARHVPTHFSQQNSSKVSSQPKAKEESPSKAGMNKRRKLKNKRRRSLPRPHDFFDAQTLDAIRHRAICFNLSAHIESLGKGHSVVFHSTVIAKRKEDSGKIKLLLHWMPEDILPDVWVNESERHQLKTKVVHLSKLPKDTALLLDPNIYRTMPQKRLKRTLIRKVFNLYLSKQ
# [4] = system: human diffuse large B-cell lymphoma cells (Karpas 422 cell); assay: Karpas 422 cell proliferation, Calcein AM staining; format: cell-based; settings: data of 14th day, read-out: Karpas422 Proliferation IC50 Nanomoles per Liter
# [5] = system: human diffuse large cell lymphoma B lymphocytes (Pfeiffer cell); assay: Pharmacodynamic experiment, Pfeiffer transplanted tumor model in mice; format: in vivo, mice (beige SCID); settings: intragastrically, once a day for 21 days; for inhibited tumor growth: 100 mg/kg; for inhibition in vivo at 100 mg/kg: Mus musculus, Pfeiffer, po, 504 h, read-out: inhibited tumor growth
# From the text: Under sterile conditions, human diffuse large cell lymphoma B lymphocytes (Pfeiffer cell) in logarithmic growth stage were digested and mixed with Matrigel and transplanted subcutaneously on the right back of mice (beige SCID) with severe combined immunodeficiency disease.
# [6] = Pharmacokinetic experiment in rats; format: in vivo, SD rats; settings: for Area Curve (AUC, ng/mL · h) / Half life T1/2, h) / Blood Drug level (Cmax, ng/mL) / Bioavailability (P %) / AUC / Cmax / bioavailability: rats; for Bioavailability (P %) / bioavailability: oral 20 mg/kg vs intravenous 4 mg/kg; for AUC / Cmax / bioavailability: male, SD, rat, plasma; for AUC: read-out: Area Curve (AUC, ng/mL · h); for half-life: male, SD, rat, plasma; rats, Intravenous-Dose 4 mg/kg; read-out: Half life T1/2, h) (converted); for Cmax: read-out: Blood Drug level (Cmax, ng/mL); for bioavailability: read-out: Bioavailability (P %)
# Experimental: A certain amount of compound was weighted and dissolved in 0.1% Tween under vortex and ultrasound, and 0.5% carboxymethyl cellulose sodium (CMC-NA) solution was added to form a uniform solution.
# [7] = system: human diffuse large cell lymphoma B lymphocytes (Pfeiffer cell); assay: Pfeiffer cell proliferation, Calcein AM staining; format: cell-based; settings: data of 14th day, read-out: Pfeiffer Proliferation IC50 Nanomoles per Liter
# From the text: The diffuse large cell lymphoma B lymphocytes (Pfeiffer cells) were collected and counted when growing well.
# [8] = target: Mutant type EZH2(Y641N) (Homo sapiens (Human), UniProt Q15910, Y641N); assay: AlphaLISA, mutant type PRC2 complex EZH2(Y641N); format: biochemical; settings: read-out: Mutant type EZH2(Y641N) IC50 Nanomoles per Liter
# Chain of Mutant type EZH2(Y641N) (Q15910 whole entry Y641N): as the sequence (Q15910 whole entry) above, with Y641N counted along it
# Chain of Mutant type EZH2(Y641N) (O75530 whole entry partner): as the sequence (O75530 whole entry partner) above
# Chain of Mutant type EZH2(Y641N) (Q15022 whole entry partner): as the sequence (Q15022 whole entry partner) above
# Chain of Mutant type EZH2(Y641N) (Q09028 whole entry partner): as the sequence (Q09028 whole entry partner) above
# Chain of Mutant type EZH2(Y641N) (Q6ZN18 whole entry partner): as the sequence (Q6ZN18 whole entry partner) above
# Chain of Mutant type EZH2(A677G) (Q15910 whole entry A677G): as the sequence (Q15910 whole entry) above, with A677G counted along it
# Chain of Mutant type EZH2(A677G) (O75530 whole entry partner): as the sequence (O75530 whole entry partner) above
# Chain of Mutant type EZH2(A677G) (Q15022 whole entry partner): as the sequence (Q15022 whole entry partner) above
# Chain of Mutant type EZH2(A677G) (Q09028 whole entry partner): as the sequence (Q09028 whole entry partner) above
# Chain of Mutant type EZH2(A677G) (Q6ZN18 whole entry partner): as the sequence (Q6ZN18 whole entry partner) above
molecule,measurement,setting,value
"3-(ethyl(tetrahydro-2H-pyran-4-yl)amino)-5-(6-fluoro-2,2′,3,3′,5′,6′-hexahydrospiro[indene-1,4′-pyran]-5-yl)-N-((4-methoxy-6-methyl-2-oxo-1,2-dihydropyridin-3-yl)methyl)-2-methylbenzamide 9-1 and 3-(ethyl(tetrahydro-2H-pyran-4-yl)amino)-5-(5-fluoro-2,2′,3,3′,5′,6′-hexahydrospiro[indene-1,4′-pyran]-6-yl)-N-((4-methoxy-6-methyl-2-oxo-1,2-dihydropyridin-3-yl)methyl)-2-methylbenzamide 9-2 [Example 9]",IC50,[1],0.37 nM
same,pIC50,[2],9.15
same,pIC50,[3],9.28
same,pIC50,[4],8.74
same,inhibited tumor growth,[5],97%
same,"Area Curve (AUC, ng/mL · h)",[6]; Intravenous-Dose 4 mg/kg,926.01 ng·h/mL
same,"Half life T1/2, h)",[6]; Intravenous-Dose 4 mg/kg,1.54 h
same,"Area Curve (AUC, ng/mL · h)",[6]; Oral-Dose 20 mg/kg,1522.36 ng·h/mL
same,"Blood Drug level (Cmax, ng/mL)",[6]; Oral-Dose 20 mg/kg,437.25 ng/mL
same,Bioavailability (P %),[6],32.88%
same,pIC50,[7],9.38
"CCN(c1cc(-c2ccc3c(c2)NCC32CCOCC2)cc(C(=O)NCc2c(OC)cc(C)[nH]c2=O)c1C)C1CCNCC1 [Example 5, 3-(ethyl(piperidin-4-yl)amino)-N-((4-methoxy-6-methyl-2-oxo-1,2-dihydropyridin-3-yl)methyl)-2-methyl-5-(2′,3′,5′,6′-tetrahydrospiro[indoline-3,4′-pyran]-6-yl)benzamide]",inhibition in vivo at 100 mg/kg,[5],98%
same,AUC,[6]; Intravenous-Dose 4 mg/kg,912 ng·h/mL
same,half-life,[6],1.05 h
same,AUC,[6]; Oral-Dose 20 mg/kg,1570 ng·h/mL
same,Cmax,[6]; Oral-Dose 20 mg/kg,453 ng/mL
same,bioavailability,[6],34.3%
"CCN(c1cc(-c2ccc3c(c2)NCC32CCN(C)CC2)cc(C(=O)NCc2c(C)cc(C)[nH]c2=O)c1C)C1CCOCC1 [Example 7, N-((4,6-dimethyl-2-oxo-1,2-dihydropyridin-3-yl)methyl)-3-(ethyl(tetrahydro-2H-pyran-4-yl)amino)-2-methyl-5-(1′-methylspiro[dihydroindole-3,4′-piperidine]-6-yl)benzamide]",inhibited tumor growth,[5],95%
same,"Area Curve (AUC, ng/mL · h)",[6]; Intravenous-Dose 4 mg/kg,937.25 ng·h/mL
same,"Half life T1/2, h)",[6]; Intravenous-Dose 4 mg/kg,1.64 h
same,"Area Curve (AUC, ng/mL · h)",[6]; Oral-Dose 20 mg/kg,1435.87 ng·h/mL
same,"Blood Drug level (Cmax, ng/mL)",[6]; Oral-Dose 20 mg/kg,405.10 ng/mL
same,Bioavailability (P %),[6],30.64%
"CCN(c1cc(-c2cc3c(cc2F)C2(CCOCC2)C(=O)N3C)cc(C(=O)NCc2c(C)cc(C)[nH]c2=O)c1C)C1CCOCC1 [Example 12, N-((4,6-dimethyl-2-carbonyl-1,2-dihydropyridin-3-yl)methyl)-3-(ethyl(tetrahydro-2H-pyran-4-yl)amino)-5-(5-fluoro-1-methyl-2-carbonyl-2′,3′,5′,6′-tetrahydrospiro[dihydroindole-3,4′-pyran]-6-yl)-2-methylbenzamide]",pIC50,"[4]; Homo sapiens, KARPAS-422",9.02
same,inhibition in vivo at 100 mg/kg,[5],99%
same,AUC,[6]; Intravenous-Dose 4 mg/kg,896 ng·h/mL
same,half-life,[6],1.37 h
same,AUC,[6]; Oral-Dose 20 mg/kg,1510 ng·h/mL
same,Cmax,[6]; Oral-Dose 20 mg/kg,412 ng/mL
same,bioavailability,[6],33.7%
same,pIC50,"[7]; Homo sapiens, Pfeiffer",9.72
"CCN(c1cc(-c2ccc3c(c2)N(C)C(=O)C32CCNCC2)cc(C(=O)NCc2c(OC)cc(C)[nH]c2=O)c1C)C1CCOCC1 [Example 34, 3-(ethyl(tetrahydro-2H-pyran-4-yl)amino)-N-((4-methoxy-6-methyl-2-carbonyl-1,2-dihydropyridin-3-yl)methyl)-2-methyl-5-(1-methyl-2-carbonylspiro[dihydroindole-3,4′-piperidine]-6-yl)benzamide]",inhibition in vivo at 100 mg/kg,[5],96%
same,AUC,[6]; Intravenous-Dose 4 mg/kg,966 ng·h/mL
same,half-life,[6],1.32 h
same,AUC,[6]; Oral-Dose 20 mg/kg,1750 ng·h/mL
same,Cmax,[6]; Oral-Dose 20 mg/kg,594 ng/mL
same,bioavailability,[6],36.3%
"CCN(c1cc(-c2ccc3c(c2)C2(CCOCC2)C(=O)N3)cc(C(=O)NCc2c(C)cc(C)[nH]c2=O)c1C)C1CCOCC1 [Example 77, N-((4,6-dimethyl-2-oxo-1,2-dihydropyridin-3-yl)methyl)-3-(ethyl(tetrahydro-2H-pyran-4-yl)amino)-2-methyl-5-(2-oxo-2′,3′,5′,6′-tetrahydrospiro[dihydroindole-3,4′-pyran]-5-yl)benzamide]",pIC50,[1],9.17
same,pIC50,[2],9.04
same,pIC50,"[4]; Homo sapiens, KARPAS-422",8.09
same,inhibition in vivo at 100 mg/kg,[5],100%
same,pIC50,"[7]; Homo sapiens, Pfeiffer",8.15
"CCN(c1cc(-c2ccc3c(c2)C2(CCOCC2)C(=O)N3C)cc(C(=O)NCc2c(C)cc(C)[nH]c2=O)c1C)C1CCOCC1 [Example 83, N-((4,6-dimethyl-2-oxo-1,2-dihydropyridin-3-yl)methyl)-3-(ethyl(tetrahydro-2H-pyran-4-yl)amino)-2-methyl-5-(1-methyl-2-oxo-2′,3′,5′,6′-tetrahydrospiro[dihydroindole-3,4′-pyran]-5-yl)benzamide]",pIC50,[1],9.04
same,pIC50,[2],8.74
same,pIC50,[3],8.83
same,pIC50,"[4]; Homo sapiens, KARPAS-422",8.32
same,inhibition in vivo at 100 mg/kg,[5],98%
same,pIC50,"[7]; Homo sapiens, Pfeiffer",8.37
same,pIC50,[8],9.42
"CCN(c1cc(-c2ccc3c(c2)NC(=O)C32CCC(C)(O)CC2)cc(C(=O)NCc2c(C)cc(C)[nH]c2=O)c1C)C1CCOCC1 (centres unmarked) [Example 93, N-((4,6-dimethyl-2-oxo-1,2-dihydropyridin-3-yl)methyl)-3-(ethyl(tetrahydro-2H-pyran-4-yl)amino)-5-(4-hydroxy-4-methyl-2′-oxospiro[cyclohexane-1,3′-dihydroindole]-6′-yl)-2-methylbenzamide]",pIC50,[2],8.95
same,pIC50,[3],9.24
same,pIC50,"[4]; Homo sapiens, KARPAS-422",8.58
same,inhibition in vivo at 100 mg/kg,[5],94%
same,pIC50,"[7]; Homo sapiens, Pfeiffer",8.86
same,pIC50,[8],9.40
"CCN(c1cc(-c2ccc3c(c2)C2(CCOCC2)C(=O)N3C)cc(C(=O)NCc2c(OC)cc(C)[nH]c2=O)c1C)C1CCN(CC(F)(F)F)CC1 [Example 109, 3-(Ethyl(1-(2,2,2-trifluoroethyl)piperidin-4-yl)amino)-N-((4-methoxy-6-methyl-2-oxo-1,2-dihydropyridin-3-yl)methyl)-2-methyl-5-(1-methyl-2-oxo-2′,3′,5′,6′-tetrahydrospiro[dihydroindole-3,4′-pyran]-5-yl)benzamide]",pIC50,[1],9.20
same,pIC50,[2],9.09
same,pIC50,[3],9.14
same,pIC50,"[4]; Homo sapiens, KARPAS-422",8.67
same,inhibition in vivo at 100 mg/kg,[5],101%
same,AUC,[6]; Intravenous-Dose 4 mg/kg,966 ng·h/mL
same,half-life,[6],1.12 h
same,AUC,[6]; Oral-Dose 20 mg/kg,1610 ng·h/mL
same,Cmax,[6]; Oral-Dose 20 mg/kg,456 ng/mL
same,bioavailability,[6],53.3%
same,pIC50,"[7]; Homo sapiens, Pfeiffer",8.87
"CCN(c1cc(-c2ccc3c(c2)NC(=O)C32CCOCC2)cc(C(=O)NCc2c(OC)cc(C)[nH]c2=O)c1C)C1CCOCC1OC (centres unmarked) [Example 112, 3-(Ethyl(3-methoxytetrahydro-2H-pyran-4-yl)amino)-N-((4-methoxy-6-methyl-2-oxo-1,2-dihydropyridin-3-yl)methyl)-2-methyl-5-(2-oxo-2′,3′,5′,6′-tetrahydrospiro[dihydroindole-3,4′-pyran]-6-yl)benzamide]",pIC50,[1],9.29
same,pIC50,[2],8.99
same,pIC50,[3],9.09
same,pIC50,"[4]; Homo sapiens, KARPAS-422",8.24
same,AUC,[6]; Intravenous-Dose 4 mg/kg,936 ng·h/mL
same,half-life,[6],1.26 h
same,AUC,[6]; Oral-Dose 20 mg/kg,1190 ng·h/mL
same,Cmax,[6]; Oral-Dose 20 mg/kg,494 ng/mL
same,bioavailability,[6],25.5%
same,pIC50,"[7]; Homo sapiens, Pfeiffer",8.38
same,pIC50,[8],9.32
